Experimental data as given in patent publication US12552846B2, “Modified BCL9 mimetic peptides” (Sapience Therapeutics, Inc., priority 2019, dated 2026).

Test system: MCF-7 breast cancer cells
Assay: MTT cell viability / anti-proliferative assay in MCF-7 cells
Type: cell-based
Conditions: MCF7 cells, compared to peptide ST-BC1
Experimental: MCF-7 breast cancer cells set at a density of 2.5×10^4 cells/well in 150 μL of MEM medium+10% fetal bovine serum (FBS) in a 96 well dish. Lyophilized BCL9 peptides were reconstituted at a concentration of 10 mg/mL in 270 mM trehalose buffer and added to each well at a volume of 50 μL to a final concentration range of 2.5-40 μM. Cells were incubated with BCL9 peptides for 96 hours at 37° C.
Cell viability was quantified by spectrophotometry using Roche MTT cell proliferation assay kit according to manufacturer's instructions. Briefly, cells were washed with PBS, and incubated in fresh MEM medium with 10% FBS, 1% penicillin/streptomycin, and 1% non-essential amino acids, plus 10 μL MTT reagent at 37° C. for 4 hours. After 4 hours, 100 μL of solubilization solution was added, and cells were incubated overnight at 37° C. and 5% carbon dioxide. Absorbance was measured at OD570 nm with a reference of OD650 nm. The degree of absorption is proportional to the number of living cells. Percentage of absorbance relative to untreated controls was quantified and presented as % Cell Viability.
In functional assays, EC50 is the concentration that reduces a biological response by 50% of its maximum. In the case of BLC9 peptides, EC50 is measured as the concentration that reduces cell viability by 50% of its maximum. EC50 can be calculated by any number of means known in the art.

## YGRKKRRQRRRLSQEQLEHRERSLQTLRDIQRMLF [BCL-21, TAT cell-penetrating region plus native BCL9 HD2 domain]
  anti-proliferative activity: inefficient at inhibiting cell proliferation
